Measurements published in publication PMC3145970, “Specific CLK Inhibitors from a Novel Chemotype for Regulation of Alternative Splicing” (Chemistry & Biology, 2011).
Read-outs that look alike come from different tables or passages of the source.

Columns and labels:
RHOK = target: T1, RHOK (Homo sapiens, UniProt Q15835); assay: Thermal stability shift assay; type: binding; details: read-out: Tm shift RHOK
T1 sequence (Q15835 1-563): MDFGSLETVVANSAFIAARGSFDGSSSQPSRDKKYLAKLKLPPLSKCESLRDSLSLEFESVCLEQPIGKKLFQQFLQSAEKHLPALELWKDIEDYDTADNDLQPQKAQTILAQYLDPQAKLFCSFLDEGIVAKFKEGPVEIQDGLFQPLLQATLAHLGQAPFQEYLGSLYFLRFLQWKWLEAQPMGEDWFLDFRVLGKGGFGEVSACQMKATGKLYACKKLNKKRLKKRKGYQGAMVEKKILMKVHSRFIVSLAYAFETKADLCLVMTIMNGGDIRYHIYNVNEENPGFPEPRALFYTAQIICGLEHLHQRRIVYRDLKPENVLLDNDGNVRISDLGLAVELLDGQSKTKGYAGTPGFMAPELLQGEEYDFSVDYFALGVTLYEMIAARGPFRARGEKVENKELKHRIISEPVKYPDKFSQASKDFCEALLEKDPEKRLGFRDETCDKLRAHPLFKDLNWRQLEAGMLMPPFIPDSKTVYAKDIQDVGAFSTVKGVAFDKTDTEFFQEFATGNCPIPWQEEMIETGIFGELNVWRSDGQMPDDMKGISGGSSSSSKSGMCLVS
Summary of the method: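 Each value reflects thermal unfolding of 2 μM protein with 10 μM inhibitor, detected by SyproOrange (1:1000 dilution) fluorescence in 10 mM HEPES pH 7.5, 500 mM NaCl.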

[1] = tested on: panel of 106 kinases / 129 human protein kinases; assay: Thermal shift assay, kinase panel; type: binding; details: inhibitor 10 μM
Procedure: Thermal denaturation experiments were carried out in an Mx3005p real-time PCR machine (Agilent) using a protein concentration of 2 μM and an inhibitor concentration of 10 μM. Samples were buffered in 10 mM HEPES (pH 7.5), 500 mM NaCl and a 1:1000 dilution of SyproOrange (Invitrogen). The assay and data evaluation were carried out as described ([Bullock et al., 2005])

[2] = tested on: flTF and asHTF mRNA in HMEC-1 cells; assay: TF isoform mRNA expression (RT-PCR)
Procedure: For inhibition experiments, HMEC-1 endothelial cells were switched to EC basal medium (without fetal calf serum) for 1 hr. […] Analysis of the TF isoform mRNA expression was done 1 hr post stimulation with TNF-α and assessment of the phosphorylation state of SR proteins by western blotting was performed 2 min post induction of the cells. Positive controls were stimulated only with TNF-α, and negative controls were untreated.

[3] = tested on: phosphorylated SR proteins in HMEC-1 cells; assay: SR protein phosphorylation, western blotting; type: cell-based, human; details: TNF-α-stimulated HMEC-1, increasing inhibitor concentration
Procedure: Western blot analysis of samples from cell lysates of inhibited, stimulated, and unstimulated HMEC-1 cells were performed as previously described ([Szotowski et al., 2005]). For detection of phosphorylated SR proteins, monoclonal antibody mAb1H4 (Invitrogen GmbH, Karlsruhe, Germany) was used.

[4] = tested on: panel of 71 protein kinases; assay: Caliper mobility shift enzymatic kinase selectivity screening; type: biochemical; details: tested 0.1 nM to 10 μM; ATP at KM
Procedure: Enzymatic kinase selectivity screening was carried out using the Caliper mobility shift assay which is based on the difference in capillary electrophoresis mobility of a fluorescent tagged peptide as a result of the addition of a phosphate moiety by the studied kinase. The kinase reactions were started by addition of 4.5 μl substrate mix consisting of ATP and peptide substrate in assay buffer (50 mM HEPES [pH 7.5], 0.02% bovine serum albumin, 1 mM DTT, 0.02% Tween 20, 0.01 mM Na3VO4, 10 mM beta-glycerophosphate) and 4.5 μl enzyme solution in assay buffer. The peptide concentration was 2 μM. Concentrations for the enzyme, as well as for MgCl2 and MnCl2 were adjusted specifically to the requirements of the individual enzyme. ATP concentrations were adjusted to the KM values of the specific enzyme. After incubation for 60 min at 30°C the kinase reactions were stopped by addition of 16 μl stop solution (100 mM HEPES [pH 7.5], 5% DMSO, 0.1% coating reagent [Caliper Lifescience] 10 mM EDTA [pH 8.0], 0.015% BRIJ35). Stopped kinase reactions were analyzed in a LC3000 reader (Caliper Lifescience). Compounds were tested from 0.1 nM to 10 μM in eight steps.

ΔTm at 10 µM (RHOK; inhibitor 10 μM) [°C]	Compound	Interaction in thermal shift screen, panel of 106 kinases [1]	ΔTm at 10 µM (RHOK) [°C]	further results
0.9	CCOC(=O)c1c(C(C#N)=CN(C)C)c2ccc(Cl)c(Cl)c2n1C (mixture of isomers) [compound 2, (E/Z)-Ethyl 6,7-Dichloro-3-[1-Cyano-2-(Dimethylamino)Vinyl]-1-Methyl-1H-Indole-2-Carboxylate]	showed only interaction with CLK family members		
	CCOC(=O)c1c(/C(C#N)=C\N)c2ccc(Cl)c(Cl)c2n1C [KH-CB19, (E)-Ethyl 3-(2-Amino-1-Cyanovinyl)-6,7-Dichloro-1-Methyl-1H-Indole-2-Carboxylate]		0.5	TNF-α-induced mRNA expression of flTF and asHTF ([2]; HMEC-1, 10 μM inhibitor, 10 ng/ml TNF-α, 1 hr post stimulation): lowered TNF-α-induced expression of both TF mRNA splice variants to baseline; Basal mRNA expression of flTF and asHTF ([2]; resting HMEC-1, 10 μM inhibitor): significantly reduced the basal expression of flTF as well as asHTF; Dose response of SRp75 and SRp55 phosphorylation [3]: significantly reduced at increasing concentration of the inhibitor; Inhibition of panel of 71 protein kinases [4]: No additional kinases from the panel were inhibited
	CCOC(=O)c1c(C(C#N)=CN)c2ccc(Cl)c(Cl)c2n1C (mixture of isomers) [KH-CB20, (E/Z)-Ethyl 3-(2-Amino-1-Cyanovinyl)-6,7-Dichloro-1-Methyl-1H-Indole-2-Carboxylate]		0.3	
0.9	Cn1c2c(Cl)c(Cl)ccc2c2c(C#N)c[nH]c(=O)c21 [compound 3, 7,8-Dichloro-9-Methyl-1-Oxo-2,9-Dihydro-1H-Pyrido[3,4-b]Indole-4-Carbonitrile]	showed only interaction with CLK family members		

Compound	ΔTm at 10 µM (RHOK; inhibitor 10 μM) [°C]	Interaction in thermal shift screen, panel of 106 kinases [1]	ΔTm at 10 µM (RHOK) [°C]	further results
NC1=NC(=O)/C(=C2\CCNC(=O)c3[nH]c(Br)cc32)N1 [Hymenialdisine, hymenialdisine, reference compound]	0.7			
